According to article PMC3925373 (Bioorganic & medicinal chemistry, 2013):
Where a name gives a salt, the structure may show the parent alone. Read-outs that look alike come from different tables or passages of the source.

Experiments:
[1] = target: Bacillus anthracis lethal factor (Bacillus anthracis, UniProt P15917); assay: biochemical; format: biochemical
[2] = target: BaLF (Bacillus anthracis, UniProt P15917); format: biochemical
[3] = target: BoNT/A LC (Clostridium botulinum, UniProt P0DPI0); assay: biochemical; format: biochemical, Clostridium bolulinum
[4] = target: T1, Human matrix metalloprotease-1 (Homo sapiens, UniProt P03956); assay: Human MMP-1 FRET assay; format: biochemical
T1 sequence (P03956 100-469): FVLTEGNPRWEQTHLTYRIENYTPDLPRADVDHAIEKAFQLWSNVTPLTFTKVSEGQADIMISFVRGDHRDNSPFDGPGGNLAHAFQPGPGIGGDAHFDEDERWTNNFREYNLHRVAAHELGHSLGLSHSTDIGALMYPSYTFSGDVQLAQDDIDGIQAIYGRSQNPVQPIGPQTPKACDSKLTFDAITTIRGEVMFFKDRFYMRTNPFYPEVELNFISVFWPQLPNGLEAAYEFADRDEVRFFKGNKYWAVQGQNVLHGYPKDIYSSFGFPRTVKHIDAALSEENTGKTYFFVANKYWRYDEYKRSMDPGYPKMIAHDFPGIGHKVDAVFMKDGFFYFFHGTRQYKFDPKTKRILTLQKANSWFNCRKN

Sequence of Bacillus anthracis lethal factor (P15917 34-809 limits assumed): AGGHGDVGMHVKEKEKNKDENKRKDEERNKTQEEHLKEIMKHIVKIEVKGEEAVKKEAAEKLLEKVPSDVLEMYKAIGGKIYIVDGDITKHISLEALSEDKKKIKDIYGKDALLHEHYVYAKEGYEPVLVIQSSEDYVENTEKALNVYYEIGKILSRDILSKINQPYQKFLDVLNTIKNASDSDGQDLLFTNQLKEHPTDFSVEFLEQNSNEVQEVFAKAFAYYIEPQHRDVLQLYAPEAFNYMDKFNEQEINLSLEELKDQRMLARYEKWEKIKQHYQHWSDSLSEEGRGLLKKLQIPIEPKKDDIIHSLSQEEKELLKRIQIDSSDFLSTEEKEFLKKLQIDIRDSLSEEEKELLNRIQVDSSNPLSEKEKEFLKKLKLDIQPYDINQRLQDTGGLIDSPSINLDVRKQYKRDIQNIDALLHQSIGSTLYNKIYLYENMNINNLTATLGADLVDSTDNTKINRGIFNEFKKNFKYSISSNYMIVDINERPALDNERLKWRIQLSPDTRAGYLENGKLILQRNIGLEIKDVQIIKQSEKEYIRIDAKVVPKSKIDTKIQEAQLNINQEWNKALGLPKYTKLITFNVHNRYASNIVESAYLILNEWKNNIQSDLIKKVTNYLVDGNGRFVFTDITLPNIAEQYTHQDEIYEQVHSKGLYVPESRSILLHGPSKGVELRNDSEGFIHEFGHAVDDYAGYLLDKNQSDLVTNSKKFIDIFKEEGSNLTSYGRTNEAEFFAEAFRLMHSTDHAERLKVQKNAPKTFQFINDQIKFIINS
Sequence of BoNT/A LC (P0DPI0 2-448 limits assumed): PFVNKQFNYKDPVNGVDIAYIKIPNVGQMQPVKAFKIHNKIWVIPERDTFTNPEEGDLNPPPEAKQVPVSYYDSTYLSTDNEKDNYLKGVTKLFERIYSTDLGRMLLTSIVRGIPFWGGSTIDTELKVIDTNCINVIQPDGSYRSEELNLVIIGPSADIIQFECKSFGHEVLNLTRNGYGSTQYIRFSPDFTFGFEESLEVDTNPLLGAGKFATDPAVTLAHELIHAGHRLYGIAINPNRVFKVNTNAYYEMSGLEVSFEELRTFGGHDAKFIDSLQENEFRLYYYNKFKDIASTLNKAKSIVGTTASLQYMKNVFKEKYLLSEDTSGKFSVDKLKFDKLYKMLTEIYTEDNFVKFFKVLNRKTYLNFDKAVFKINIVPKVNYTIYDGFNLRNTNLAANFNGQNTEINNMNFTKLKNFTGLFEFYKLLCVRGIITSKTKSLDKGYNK
Sequence of BaLF (P15917 34-809 limits assumed): as the sequence (P15917 34-809 limits assumed) above

Molecule | LF inhibitory activity (in words) [1] | other results
Cc1cc(N)c2cc(NC(=O)CCc3ccccc3Cl)ccc2n1 [Compound 18z, N-(4-Amino-2-methylquinolin-6-yl)-3-(2-chlorophenyl)propionamide trifluoroacetate] | inactive | –
COc1ccc(Br)cc1CCC(=O)Nc1ccc2nc(C)cc(N)c2c1 [Compound 18ee, N-(4-Amino-2-methylquinolin-6-yl)-3-(5-bromo-2-methoxyphenyl)propionamide trifluoroacetate] | inactive | –
COc1ccc(Cl)cc1CCC(=O)Nc1ccc2nc(C)cc(N)c2c1 [Compound 18ff, N-(4-Amino-2-methylquinolin-6-yl)-3-(5-chloro-2-methoxyphenyl)propionamide trifluoroacetate] | inactive | –
COc1ccc(OC)c(CCC(=O)Nc2ccc3nc(C)cc(N)c3c2)c1 [Compound 18w, N-(4-Amino-2-methylquinolin-6-yl)-3-(2,5-dimethoxyphenyl)propionamide p-toluenesulfonate] | complete loss of activity | –
COc1cccc(CCC(=O)Nc2ccc3nc(C)cc(N)c3c2)c1OC [Compound 18x, N-(4-Amino-2-methylquinolin-6-yl)-3-(2,3-dimethoxyphenyl)propionamide p-toluenesulfonate] | complete loss of activity | –
COc1ccccc1CCC(=O)Nc1ccc2nc(C)cc(N)c2c1 [Compound 18t, N-(4-Amino-2-methylquinolin-6-yl)-3-(2-methoxyphenyl)propionamide trifluoroacetate] | – | mechanism of inhibition on BaLF activity [2]: noncompetitive
COc1ccncc1CCC(=O)Nc1ccc2nc(C)cc(N)c2c1 [Compound 18oo, N-(4-Amino-2-methylquinolin-6-yl)-3-(4-methoxypyridin-3-yl)propionamide] | devoid of activity | –
COc1ccc(CCC(=O)Nc2ccc3nc(C)cc(N)c3c2)cc1 [Compound 18u, N-(4-Amino-2-methylquinolin-6-yl)-3-(4-methoxyphenyl)propionamide p-toluenesulfonate] | LF inhibitory activity was lost | –
Cc1cc(N)c2cc(NC(=O)Nc3ccc4c(c3)OCO4)ccc2n1 [Compound 20a, 1-(4-Amino-2-methylquinolin-6-yl)-3-(benzo[d][1,3]dioxol-5-yl)urea trifluoroacetate] | – | IC50 [1]: 87 µM; IC50 [3]: 51 µM
Cc1cc(N)c2cc(NC(=O)CCc3ccccc3C)ccc2n1 [Compound 18aa, N-(4-Amino-2-methylquinolin-6-yl)-3-(2-methylphenyl)propionamide trifluoroacetate] | inactive | –
Cc1cc(N)c2cc(NC(=O)CCc3ccccc3OC(=O)c3ccccc3)ccc2n1 [Compound 18y, N-(4-Amino-2-methylquinolin-6-yl)-3-(2-benzoyloxyphenyl)propionamide trifluoroacetate] | inactive | –
COc1cccc(CCC(=O)Nc2ccc3nc(C)cc(N)c3c2)c1 [Compound 18v, N-(4-Amino-2-methylquinolin-6-yl)-3-(3-methoxyphenyl)propionamide trifluoroacetate] | LF inhibitory activity was lost | –
Cc1cc(N)c2cc(NC(=O)c3ccc(-c4ccc5ncccc5c4)cc3)ccc2n1 [Compound 18m, N-(4-Amino-2-methylquinolin-6-yl)-4-(quinoline-6-yl)benzamide trifluoroacetate] | – | mechanism of inhibition on BaLF activity [2]: noncompetitive
COc1cc(-c2cccnc2)ccc1CCC(=O)Nc1ccc2nc(C)cc(N)c2c1 [Compound 35, N-(4-Amino-2-methylquinolin-6-yl)-3-(2-methoxy-4-(pyridin-3-yl)phenyl)propanamide] | – | IC50 [1]: 55 µM
N-(4-Amino-2-methylquinolin-6-yl)quinoline-2-carboxamide trifluoroacetate [Compound 18g] | – | IC50 ([1]; read-out: IC50 LF): 52 µM
COc1ccsc1CCC(=O)Nc1ccc2nc(C)cc(N)c2c1 [Compound 18pp, N-(4-Amino-2-methylquinolin-6-yl)-3-(3-methoxythiophene-2-yl)propionamide trifluoroacetate] | devoid of activity | –
Cc1cc(N)c2cc(NC(=O)Nc3ccc4nc(C)cc(N)c4c3)ccc2n1 [Compound 1] | – | IC50 [4]: > 100 µM
CCOc1ccccc1CCC(=O)Nc1ccc2nc(C)cc(N)c2c1 [Compound 18ii, N-(4-Amino-2-methylquinolin-6-yl)-3-(2-ethoxyphenyl)propionamide trifluoroacetate] | activity was also totally lost | –
N-(4-Amino-2-methylquinolin-6-yl)isoquinoline-3-carboxamide trifluoroacetate [Compound 18h] | – | IC50 ([3]; read-out: IC50 BoNT/A): > 100 µM
